# Where two headings read alike, the source gives them in different places.
# How the values were obtained:
# [1] = system: dermal fibroblast cell lines; test: Myofibroblast number in dermal fibroblast cell lines in GFD medium with PPAR agonist; format: cell-based, human; details: for Mean percentage reduction in myofibroblast number compared to GFD medium alone: 14 days
# From the text: Dermal fibroblast cell lines were derived from 3 patients and seeded individually onto sterile coverslips. […] Medium was refreshed twice weekly and cultures were harvested for immunohistochemical staining for α-smooth muscle actin after 14 days. The number of myofibroblasts was counted and calculated as a percentage of the total cells present, and since the ability of each cell line to differentiate into myofibroblasts varied extensively, the results were normalised as follows. Results are expressed as the mean percentage reduction in myofibroblast number for each treatment as compared to the proportion of myofibroblasts identified in GFD medium alone for that cell line. The error bars represent plus or minus one standard deviation.
# PPARγ = target: T1, PPARγ (Homo sapiens, UniProt P37231); details: read-out: Published C50, cited from earlier work
# T1 sequence (P37231 1-505): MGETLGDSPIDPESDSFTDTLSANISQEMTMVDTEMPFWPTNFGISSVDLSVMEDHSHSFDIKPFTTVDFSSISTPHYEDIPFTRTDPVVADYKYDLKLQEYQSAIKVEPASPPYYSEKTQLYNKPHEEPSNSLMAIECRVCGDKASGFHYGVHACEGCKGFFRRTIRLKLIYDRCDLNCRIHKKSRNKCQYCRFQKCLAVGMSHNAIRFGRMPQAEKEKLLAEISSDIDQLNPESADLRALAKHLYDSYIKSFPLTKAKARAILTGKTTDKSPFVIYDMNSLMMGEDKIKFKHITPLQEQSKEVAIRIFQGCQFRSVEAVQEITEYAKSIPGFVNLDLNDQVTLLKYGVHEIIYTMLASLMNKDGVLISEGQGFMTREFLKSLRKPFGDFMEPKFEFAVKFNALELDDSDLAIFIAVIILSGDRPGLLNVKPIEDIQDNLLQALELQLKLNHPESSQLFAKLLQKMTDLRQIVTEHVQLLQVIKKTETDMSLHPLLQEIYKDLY
# PPAR = details: Table 3: other general PPAR agonists; read-out: Published C50; cited from earlier work
# [2] = system: fibroblast cultures from normal scars; test: In vitro myofibroblast differentiation assay (α-smooth muscle actin staining), normal scar fibroblasts; format: cell-based, human
# From the text: (§1) One of the most important cell types in both normal and pathological scar formation is the myofibroblast. These cells, which differentiate from the unwounded tissue cell type (fibroblasts), are responsible for laying down scar tissue. Indeed myofibroblasts remain present in hypertrophic scars up to four years after the original wounding event. An in vitro assay was accordingly developed to identify actives which prevent or reduce myofibroblast formation and thus identify actives which are effective in reducing and/or preventing scar tissue formation.
# (§2) Fibroblast cultures were initiated from normal skin, normal scars, hypertrophic scars (HTS) and burns scars.
# (§3) Each culture was split into seven parts (A to G) and grown in the following different growth media:
# (§4) (A) was grown in normal growth medium (hereinafter referred to as NGM) which consisted of Dulbecco's modified Eagles Medium (DMEM) plus 10% Foetal Calf Serum (FCS);
# (§5) (B) was grown in growth factor depleted medium (hereinafter referred to as GF depleted) which is NGM that is depleted of active polypeptide growth factors including TGFP. It is prepared by treating FCS with a reducing agent in order to attack and cleave the disulphide bonds that determine the conformation and thus the biological activity of the polypeptide growth factors;
# (§6) (D) (D1-D4) were grown in growth factor depleted medium plus 1 ng/ml-100 ng/ml of insulin-like Growth Factor-I) (IGF-I) (hereinafter referred to as GF depleted+IGF-I); (E) (E1-E3) were grown in growth factor depleted medium plus 50 ng/ml-[…] of insulin-like Growth Factor II (IGF-II) (hereinafter referred to as GF depleted+IGFII); (F) (F1F3) were grown in growth factor depleted medium plus 25 ng/ml to 100 ng/ml of basic fibroblast growth factor (bFGF) (hereinafter referred to as GF depleted and bFGF); […]
# (§7) The fibroblasts were grown in these media (which was replenished twice weekly) for fourteen days, fixed and stained immunohistochemically using an antibody specific for α-smooth muscle actin (a marker of myofibroblasts). […] The number of these was counted, as was the total number of cells present, and the proportion of myofibroblasts was then calculated. In this manner, the number of myofibroblasts present in each culture was determined as a percentage of the total number of cells in the culture population.
# (§8) Fibroblast cultures were initiated from normal scars (NS) and hypertrophic scars (HTS). […] The number of myofibroblasts was calculated as a percentage of the total cell population and the results are shown in FIGS. 1 and 2 of the drawings.
# (§9) Fibroblasts cultures were initiated from normal and hypertrophic scars. […] The number of myofibroblasts were counted and calculated as a percentage of the total cells present.
# [3] = system: fibroblast cultures from hypertrophic scars (HTS); test: In vitro myofibroblast differentiation assay (α-smooth muscle actin staining), hypertrophic scar fibroblasts; format: cell-based, human; details: hypertrophic scar fibroblasts
# From the text: as §1, §2, §3, §4, §5, §6, §7, §8, §9
# [4] = system: fibroblast cultures from burns scars; test: In vitro myofibroblast differentiation assay (α-smooth muscle actin staining), burns scar fibroblasts; format: cell-based, human; details: 14 days
# From the text: as §1, §2, §3, §4, §5
# (D) (D1-D4) were grown in growth factor depleted medium plus 1 ng/ml-100 ng/ml of insulin-like Growth Factor-I) (IGF-I) (hereinafter referred to as GF depleted+IGF-I); (E) (E1-E3) were grown in growth factor depleted medium plus 50 ng/ml-[…] of insulin-like Growth Factor II (IGF-II) (hereinafter referred to as GF depleted+IGFII); (F) (F1F3) were grown in growth factor depleted medium plus 25 ng/ml to 100 ng/ml of basic fibroblast growth factor (bFGF) (hereinafter referred to as GF depleted and bFGF);
# (G) (G1-G3) were grown in growth factor depleted medium plus 25 ng/ml to 100 ng/ml of platelet derived growth factor (PDGF) (hereinafter referred to as GF depleted+PDGF).
# The fibroblasts were grown in these media (which was replenished twice weekly) for fourteen days, fixed and stained immunohistochemically using an antibody specific for α-smooth muscle actin (a marker of myofibroblasts). The stain caused α-smooth muscle actin to fluoresce green and accordingly cells that had stained green were identified as myofibroblasts. The number of these was counted, as was the total number of cells present, and the proportion of myofibroblasts was then calculated. In this manner, the number of myofibroblasts present in each culture was determined as a percentage of the total number of cells in the culture population.
# [5] = Table 5: natural PPARγ agonists
# [6] = NGM plus 0.5 ng/ml TGFβ1, 5 days (FIG. 3)
compound,measurement,setting,value
"CC1(COc2ccc(CC3SC(=O)NC3=O)cc2)CCCCC1 (racemic) [Ciglitazone, (±)-5-[4-(1-methyl-cyclohexylmethoxy)-benzyl]-thiazolidine-2,4-dione]",Mean percentage reduction in myofibroblast number compared to GFD medium alone,[1]; 0.5×10^−7M,79%
same,Mean percentage reduction in myofibroblast number compared to GFD medium alone,[1]; 10^−6M,57%
same,Mean percentage reduction in myofibroblast number compared to GFD medium alone,[1]; 10^−7M,53%
"CCCCCC=CC=CC(O)CCCCCCCC(=O)O (stereo not drawn) [9-HODE, 9-hydroxy-10,12-octadecadienoic acid]",EC50,PPARγ; [5],~20 µM
"CCCCCC(O)C=CC=CCCCCCCCC(=O)O (stereo not drawn) [13-HODE, 13-hydroxy-9,11-octadecadienoic acid]",EC50,PPARγ; [5],~20 µM
"CCCCC[C@H](O)/C=C/C=C\C/C=C\C/C=C\CCCC(=O)O [15-HETE, 15-hydroxy-eicosatetraenoic acid]",EC50,PPARγ; [5],~10 µM
"CCCCCC=CC=C1C(=O)C=C[C@@H]1CC=CCCCC(=O)O [15-deoxy-Δ^12,14 prostaglandin J2]",EC50,PPARγ; [5],~3 µM
CCCCC/C=C\C/C=C\C/C=C\C/C=C\CCCC(=O)O [Arachidonic acid],EC50,PPARγ; [5],~20 µM
"CC(C)(Oc1ccc(CCNC(=O)c2ccc(Cl)cc2)cc1)C(=O)O [Bezafibrate, 2-[4-[2-[(4-chlorobenzoyl)-amino]ethyl]phenoxy]-2-methyl propanoic acid]",EC50,PPAR,60 µM
CCOC(=O)C(C)(C)Oc1ccc(Cl)cc1 [Clofibrate],EC50,"PPARγ; Table 4: strong agonists for PPAR receptors other than PPARγ, weak action on PPARγ",~500 µM
"CC/C=C\C/C=C\C/C=C\C/C=C\C/C=C\CCCC(=O)O [Eicosapentaenoic acid (EPA), Eicosapentaenoic acid]",EC50,PPARγ; [5],~20 µM
CCCc1c(OCCCOc2ccc(OCC(=O)O)cc2)ccc(C(C)=O)c1O [L-165041],EC50,PPAR,5.5 µM
CCCc1c(OCCCCc2nnn[nH]2)ccc(C(C)=O)c1O [LY171883],Numbers of myofibroblasts,[1]; non-specific PPAR agonist,increase the numbers of myofibroblasts
CCCCC/C=C\C/C=C\CCCCCCCC(=O)O [Linoleic acid],EC50,PPARγ; [5],~20 µM
"O=C[C@@H](O)[C@@H](O)[C@H](O)[C@H](O)COP(=O)(O)O [mannose-6-phosphate, reference compound]",Induction of myofibroblast differentiation in GFD medium,"[2]; GFD plus 100 μM or 10 μM M-6-P, 13 days (FIG. 1)",inhibits the induction of myofibroblast differentiation
same,Induction of myofibroblast differentiation in GFD medium,"[3]; GFD plus 100 μM or 10 μM M-6-P, 13 days (FIG. 2)",inhibits the induction of myofibroblast differentiation
IGF-I: insulin-like Growth Factor-I,Number of myofibroblasts - percentage of total cell population,[4]; GF depleted medium + 1 ng/ml,40.79 percentage of total cell popul
same,Number of myofibroblasts - percentage of total cell population,[4]; GF depleted medium + 10 ng/ml,43.90 percentage of total cell popul
same,Number of myofibroblasts - percentage of total cell population,[4]; GF depleted medium + 50 ng/ml,51.51 percentage of total cell popul
same,Number of myofibroblasts - percentage of total cell population,[4]; GF depleted medium + 100 ng/ml,47.00 percentage of total cell popul
IGF-II: insulin-like Growth Factor II,Number of myofibroblasts - percentage of total cell population,[4]; GF depleted medium + 50 ng/ml,37.93 percentage of total cell popul
same,Number of myofibroblasts - percentage of total cell population,[4]; GF depleted medium + 100 ng/ml,40.26 percentage of total cell popul
same,Number of myofibroblasts - percentage of total cell population,[4]; GF depleted medium + 200 ng/ml,38.52 percentage of total cell popul
PDGF,Number of myofibroblasts - percentage of total cell population,[4]; GF depleted medium + 25 ng/ml,50.95 percentage of total cell popul
same,Number of myofibroblasts - percentage of total cell population,[4]; GF depleted medium + 50 ng/ml,52.84 percentage of total cell popul
same,Number of myofibroblasts - percentage of total cell population,[4]; GF depleted medium + 100 ng/ml,53.35 percentage of total cell popul
"TGFβ1: transforming growth factor beta 1, inducer of myofibroblast differentiation",Induction of myofibroblast differentiation,[2]; [6],induces a rapid (within 5 days) induction of myofibroblast differentiation
same,Induction of myofibroblast differentiation,[3]; [6],induces a rapid (within 5 days) induction of myofibroblast differentiation
bFGF: basic fibroblast growth factor,Number of myofibroblasts - percentage of total cell population,[4]; GF depleted medium + 25 ng/ml,31.82 percentage of total cell popul
same,Number of myofibroblasts - percentage of total cell population,[4]; GF depleted medium + 100 ng/ml,34.21 percentage of total cell popul

# Reference: US8557770B2, “Method of preventing or reducing scarring of human skin” (Pharmecosse Ltd., priority 2000, dated 2013)
